Test [1] has as its target TEM-1 beta-lactamase (Escherichia coli) (UniProt P62593). In words: Tested for the inhibitory activity against beta-lactamase type TEM-1 at dose of 0.1 ug/mL using substrate ampicillin (ABPC); (TEM-1 enzyme activity is 1.6328 U/mL).
For test [2] the target is unchanged. In words: Tested for the inhibitory activity against beta-lactamase type TEM-1 at dose of 10 ug/mL using substrate ampicillin (ABPC).
In test [3] the target is Beta-lactamase (Enterobacter cloacae) (UniProt P05364). In words: Tested for the inhibitory activity against beta-lactamase, Enterobacter cloacae at dose of 10 ug/mL using substrate cephaloridine (CER); (E. Cloacae enzyme activity is 1.1517 U/ml).
Test [4] shares this target. In words: Tested for the inhibitory activity against beta-lactamase, Enterobacter cloacae at dose of 0.1 ug/mL using substrate cephaloridine (CER).
A short description of test [5]: Tested for the inhibitory activity against beta-lactamase type CTX-1 at dose of 10 ug/mL using substrate cephaloridine (CER); (CTX-1 enzyme activity is 0.7363 U/ml).
The target of test [6] is Beta-lactamase (Pseudomonas aeruginosa (strain ATCC 15692 / PAO1 / 1C / PRS 101 / LMG12228)) (UniProt P24735). In words: Tested for the inhibitory activity against beta-lactamase, Pseudomonas aeruginosa at dose of 10 ug/mL using substrate cephaloridine (CER); (P. Aeruginosa enzyme activity is 1.0352 U/ml).
In test [7] the target is TEM-1 beta-lactamase (Escherichia coli) (UniProt P62593). In words: Tested for the inhibitory activity against beta-lactamase type TEM-1 at dose of 0.66 ug/mL using substrate ampicillin (ABPC); (TEM-1 enzyme activity is 1.6328 U/mL).
Test [8] deals with Beta-lactamase (Enterobacter cloacae) (UniProt P05364). In words: Tested for the inhibitory activity against beta-lactamase, Enterobacter cloacae at dose of 0.66 ug/mL using substrate cephaloridine (CER); (E. Cloacae enzyme activity is 1.1517 U/ml).
The nature of test [9]: Tested for the inhibitory activity against beta-lactamase type CTX-1 at dose of 0.66 ug/mL using substrate cephaloridine (CER); (CTX-1 enzyme activity is 0.7363 U/ml).
For test [10], the target named is Beta-lactamase (Pseudomonas aeruginosa (strain ATCC 15692 / PAO1 / 1C / PRS 101 / LMG12228)) (UniProt P24735). In words: Tested for the inhibitory activity against beta-lactamase, Pseudomonas aeruginosa at dose of 0.66 ug/mL using substrate cephaloridine (CER); (P. Aeruginosa enzyme activity is 1.0352 U/ml).
The target in test [11] is Beta-lactamase (Enterobacter cloacae) (UniProt P05364). In words: Tested for the inhibitory activity against beta-lactamase, Enterobacter cloacae at dose of 0.66 ug/mL using substrate cephaloridine (CER).

Chain of TEM-1 beta-lactamase (Escherichia coli) (P62593 whole entry, looked up): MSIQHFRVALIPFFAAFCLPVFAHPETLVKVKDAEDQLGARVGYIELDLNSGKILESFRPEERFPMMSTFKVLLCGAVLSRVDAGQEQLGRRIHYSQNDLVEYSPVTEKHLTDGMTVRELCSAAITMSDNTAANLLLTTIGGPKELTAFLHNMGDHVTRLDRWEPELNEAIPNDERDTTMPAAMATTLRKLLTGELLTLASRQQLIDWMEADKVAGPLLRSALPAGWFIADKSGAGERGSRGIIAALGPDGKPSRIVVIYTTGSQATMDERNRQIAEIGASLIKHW
Chain of Beta-lactamase (Enterobacter cloacae) (P05364 21-381 limits assumed): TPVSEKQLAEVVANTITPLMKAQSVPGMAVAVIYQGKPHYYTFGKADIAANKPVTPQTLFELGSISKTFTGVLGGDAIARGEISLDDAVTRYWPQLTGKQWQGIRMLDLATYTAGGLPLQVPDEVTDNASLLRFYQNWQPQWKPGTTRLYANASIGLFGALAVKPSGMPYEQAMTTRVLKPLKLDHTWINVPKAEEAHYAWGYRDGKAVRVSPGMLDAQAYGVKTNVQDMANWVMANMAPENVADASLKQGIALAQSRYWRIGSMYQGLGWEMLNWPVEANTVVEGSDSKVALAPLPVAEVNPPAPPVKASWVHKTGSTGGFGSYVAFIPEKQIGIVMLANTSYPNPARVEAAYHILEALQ
Chain of Beta-lactamase (Pseudomonas aeruginosa (strain ATCC 15692 / PAO1 / 1C / PRS 101 / LMG12228)) (P24735 27-397 limits assumed): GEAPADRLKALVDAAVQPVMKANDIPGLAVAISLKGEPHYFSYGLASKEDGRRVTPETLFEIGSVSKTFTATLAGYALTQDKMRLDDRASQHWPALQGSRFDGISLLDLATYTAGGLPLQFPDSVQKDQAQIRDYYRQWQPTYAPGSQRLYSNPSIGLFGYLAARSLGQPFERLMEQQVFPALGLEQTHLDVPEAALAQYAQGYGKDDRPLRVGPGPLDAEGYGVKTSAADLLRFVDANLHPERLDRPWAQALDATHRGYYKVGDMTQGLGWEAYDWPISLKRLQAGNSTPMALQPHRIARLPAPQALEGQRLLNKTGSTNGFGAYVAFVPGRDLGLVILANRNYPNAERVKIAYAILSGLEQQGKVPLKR

As usually defined, the inhibition is the change of the read-out against control, counted positive when it falls. On to `Cn1nnnc1SC1=C(C(=O)OC(c2ccccc2)c2ccccc2)N2C(=O)C[C@H]2S1`, for which the inhibition in [1] came out at 2%; in test [2] it was 28%; in test [3], 45%; in test [4] it was 10%; in test [5], 19%; in [6], 16%.
As to `Cc1nnc(SC2=C(C(=O)OC(c3ccccc3)c3ccccc3)N3C(=O)C[C@H]3S2)s1`, the inhibition worked out at 6% in test [7]; 14% in test [8]; 12% in test [9]; 0% in test [10]; 8% in [11].

(Values after ChEMBL document CHEMBL1127138, “2-substituted penems, new candidates for cephalosporinase inhibitors” (Bioorg Med Chem Lett, 1993).)
